Test results as given in patent US20210045385A1, “PYRIDAZINONE-SUBSTITUTED KETOXIMES AS HERBICIDES” (FMC Corporation, priority 2018, published 2021).

Assays:
Type in all cases: in vivo
[1] = tested on: sedge, umbrella (small-flower umbrella sedge, Cyperus difformis); test: Test B flooded paddy test, visual plant response rating; conditions: 250 g ai/ha, Flood, applied to paddy water, 2-leaf stage, evaluated after 13 to 15 days
In short: (§1)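 Flooded-pot treatment: water 3 cm over the soil, chemical delivered into that water, depth unchanged for the duration. Assessed by eye versus controls following 13–15 greenhouse days; plants were at 2 leaves when dosed.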

[2] = tested on: barnyardgrass (Echinochloa crus-galli); test: as above; conditions: 250 g ai/ha, Flood, applied to paddy water, 2-leaf stage, evaluated after 13 to 15 days
In short: as §1

rice (Oryza sativa) = test: as above; conditions: 250 g ai/ha, Flood, applied to paddy water, 2-leaf stage, evaluated after 13 to 15 days
In short: as §1

[3] = tested on: ducksalad (Heteranhera limosa); test: as above; conditions: 250 g ai/ha, Flood, applied to paddy water, 2-leaf stage, evaluated after 13 to 15 days
In short: as §1

[4] = tested on: galium (catchweed bedstraw, Galium aparine); test: Test A postemergence, visual plant response rating; conditions: for Galium plant response rating (0 to 100 scale): 500 g ai/ha, postemergence, 0 is no effect, 100 is complete control; for Galium plant response rating: Postemergence, 125 g ai/ha, 0 to 100 scale (0 no effect, 100 complete control)
In short: (§2)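 Ratings use a 0–100 visual scale (100 = complete control) against untreated controls, scored about 10 days after greenhouse treatment. Test chemicals were formulated in surfactant-containing non-phytotoxic solvent and applied either as soil spray after planting (preemergence) or onto one- to two-leaf, 2–10 cm plants (postemergence).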

[5] = tested on: blackgrass (Alopecurus myosuroides); test: Test A postemergence, visual plant response rating; conditions: for Blackgrass plant response rating (0 to 100 scale): 500 g ai/ha, postemergence, 0 is no effect, 100 is complete control; for Blackgrass plant response rating: Postemergence, 125 g ai/ha, 0 to 100 scale (0 no effect, 100 complete control)
In short: as §2

kochia (Kochia scoparia) [6] = test: Test A postemergence, visual plant response rating; conditions: for Kochia plant response rating (0 to 100 scale): 500 g ai/ha, postemergence, 0 is no effect, 100 is complete control; for Kochia plant response rating: Postemergence, 125 g ai/ha, 0 to 100 scale (0 no effect, 100 complete control)
In short: as §2

corn (Zea mays) = test: Test A postemergence, visual plant response rating; conditions: for Corn plant response rating (0 to 100 scale): 500 g ai/ha, postemergence, 0 is no effect, 100 is complete control; for Corn plant response rating: Postemergence, 125 g ai/ha, 0 to 100 scale (0 no effect, 100 complete control)
In short: as §2

[7] = tested on: wheat (Triticum aestivum); test: Test A postemergence, visual plant response rating; conditions: for Wheat plant response rating (0 to 100 scale): 500 g ai/ha, postemergence, 0 is no effect, 100 is complete control; for Wheat plant response rating: Postemergence, 125 g ai/ha, 0 to 100 scale (0 no effect, 100 complete control)
In short: as §2

[8] = tested on: barnyardgrass (Echinochloa crus-galli); test: Test A postemergence, visual plant response rating; conditions: for Barnyardgrass plant response rating (0 to 100 scale): 500 g ai/ha, postemergence, 0 is no effect, 100 is complete control; for Barnyardgrass plant response rating: Postemergence, 125 g ai/ha, 0 to 100 scale (0 no effect, 100 complete control)
In short: as §2

[9] = tested on: Italian ryegrass (Lolium multiflorum); test: Test A postemergence, visual plant response rating; conditions: for Ryegrass, Italian plant response rating (0 to 100 scale): 500 g ai/ha, postemergence, 0 is no effect, 100 is complete control; for Ryegrass, Italian plant response rating: Postemergence, 125 g ai/ha, 0 to 100 scale (0 no effect, 100 complete control)
In short: as §2

[10] = tested on: foxtail, giant (giant foxtail, Setaria faberii); test: Test A postemergence, visual plant response rating; conditions: for Foxtail, Giant plant response rating (0 to 100 scale): 500 g ai/ha, postemergence, 0 is no effect, 100 is complete control; for Foxtail, Giant plant response rating: Postemergence, 125 g ai/ha, 0 to 100 scale (0 no effect, 100 complete control)
In short: as §2

[11] = tested on: ragweed (common ragweed, Ambrosia elatior); test: Test A postemergence, visual plant response rating; conditions: for Ragweed plant response rating (0 to 100 scale): 500 g ai/ha, postemergence, 0 is no effect, 100 is complete control; for Ragweed plant response rating: Postemergence, 125 g ai/ha, 0 to 100 scale (0 no effect, 100 complete control)
In short: as §2

[12] = tested on: pigweed (Amaranthus retroflexus); test: Test A postemergence, visual plant response rating; conditions: for Pigweed plant response rating (0 to 100 scale): 500 g ai/ha, postemergence, 0 is no effect, 100 is complete control; for Pigweed plant response rating: Postemergence, 125 g ai/ha, 0 to 100 scale (0 no effect, 100 complete control)
In short: as §2

kochia (Kochia scoparia) [13] = test: Test A preemergence, visual plant response rating; conditions: for Kochia plant response rating (0 to 100 scale): approx. 10 days
In short: as §2

[14] = tested on: barnyardgrass (Echinochloa crus-galli); test: Test A preemergence, visual plant response rating; conditions: for Barnyardgrass plant response rating (0 to 100 scale): approx. 10 days
In short: as §2

[15] = tested on: Italian ryegrass (Lolium multiflorum); test: Test A preemergence, visual plant response rating; conditions: for Ryegrass, Italian plant response rating (0 to 100 scale): approx. 10 days
In short: as §2

[16] = tested on: foxtail, giant (giant foxtail, Setaria faberii); test: Test A preemergence, visual plant response rating; conditions: for Foxtail, Giant plant response rating (0 to 100 scale): approx. 10 days
In short: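 Ratings 0–100 (100 = complete control), visual, vs untreated controls at ~10 days. Application pre- or postemergence; solvent mixture with surfactant; loam/sand medium.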

[17] = tested on: ragweed (common ragweed, Ambrosia elatior); test: Test A preemergence, visual plant response rating; conditions: for Ragweed plant response rating (0 to 100 scale): approx. 10 days
In short: as §2

[18] = tested on: pigweed (Amaranthus retroflexus); test: Test A preemergence, visual plant response rating; conditions: for Pigweed plant response rating (0 to 100 scale): approx. 10 days
In short: as §2

[19] = 125 g ai/ha, preemergence, 0 to 100 scale, 0 no effect, 100 complete control

C#CCn1nc(C)c(O)c(C(=NOC)c2cccc(Cl)c2)c1=O (mixture of isomers) [Compound 3]
Plant response rating, Sedge, Umbrella (0 to 100 scale, 0 is no effect, 100 is complete control) [1]: 0 | Plant response rating, Barnyardgrass (0 to 100 scale, 0 is no effect, 100 is complete control) [2]: 0 | Plant response rating, Rice (0 to 100 scale, 0 is no effect, 100 is complete control) (rice (Oryza sativa)): 0 | Plant response rating, Ducksalad (0 to 100 scale, 0 is no effect, 100 is complete control) [3]: 0 | Galium plant response rating (0 to 100 scale) [4]: 70 | Galium plant response rating [4]: 30 | Blackgrass plant response rating (0 to 100 scale) [5]: 50 | Blackgrass plant response rating [5]: 10 | Kochia plant response rating (0 to 100 scale) (kochia (Kochia scoparia) [6]): 50 | Kochia plant response rating (kochia (Kochia scoparia) [6]): 10 | Corn plant response rating (0 to 100 scale) (corn (Zea mays)): 20 | Corn plant response rating (corn (Zea mays)): 0 | Wheat plant response rating (0 to 100 scale) [7]: 10 | Wheat plant response rating [7]: 0 | Barnyardgrass plant response rating (0 to 100 scale) [8]: 40 | Barnyardgrass plant response rating [8]: 0 | Ryegrass, Italian plant response rating (0 to 100 scale) [9]: 80 | Ryegrass, Italian plant response rating [9]: 20 | Foxtail, Giant plant response rating (0 to 100 scale) [10]: 40 | Foxtail, Giant plant response rating [10]: 10 | Ragweed plant response rating (0 to 100 scale) [11]: 60 | Ragweed plant response rating [11]: 20 | Pigweed plant response rating (0 to 100 scale) [12]: 50 | Pigweed plant response rating [12]: 20 | Kochia plant response rating (0 to 100 scale) (kochia (Kochia scoparia) [13]; 125 g ai/ha Preemergence): 10 | Kochia plant response rating (0 to 100 scale) (kochia (Kochia scoparia) [13]; 500 g ai/ha Preemergence): 10 | Barnyardgrass plant response rating (0 to 100 scale) ([14]; 125 g ai/ha Preemergence): 0 | Barnyardgrass plant response rating (0 to 100 scale) ([14]; 500 g ai/ha Preemergence): 20 | Ryegrass, Italian plant response rating (0 to 100 scale) ([15]; 125 g ai/ha Preemergence): 30 | Ryegrass, Italian plant response rating (0 to 100 scale) ([15]; 500 g ai/ha Preemergence): 70 | Foxtail, Giant plant response rating (0 to 100 scale) ([16]; 125 g ai/ha Preemergence): 0 | Foxtail, Giant plant response rating (0 to 100 scale) ([16]; 500 g ai/ha Preemergence): 10 | Ragweed plant response rating (0 to 100 scale) ([17]; 125 g ai/ha Preemergence): 10 | Ragweed plant response rating (0 to 100 scale) ([17]; 500 g ai/ha Preemergence): 10 | Pigweed plant response rating (0 to 100 scale) ([18]; 125 g ai/ha Preemergence): 0 | Pigweed plant response rating (0 to 100 scale) ([18]; 500 g ai/ha Preemergence): 10

CON=C(c1cc(Cl)ccc1C)c1c(O)c(C)nn(C)c1=O [Compound 65]
Plant response rating, Sedge, Umbrella (0 to 100 scale, 0 is no effect, 100 is complete control) [1]: 0 | Plant response rating, Barnyardgrass (0 to 100 scale, 0 is no effect, 100 is complete control) [2]: 0 | Plant response rating, Rice (0 to 100 scale, 0 is no effect, 100 is complete control) (rice (Oryza sativa)): 0 | Plant response rating, Ducksalad (0 to 100 scale, 0 is no effect, 100 is complete control) [3]: 0 | Galium plant response rating (0 to 100 scale) [4]: 90 | Galium plant response rating [4]: 70 | Blackgrass plant response rating (0 to 100 scale) [5]: 30 | Blackgrass plant response rating [5]: 10 | Kochia plant response rating (0 to 100 scale) (kochia (Kochia scoparia) [6]): 80 | Kochia plant response rating (kochia (Kochia scoparia) [6]): 70 | Corn plant response rating (0 to 100 scale) (corn (Zea mays)): 0 | Corn plant response rating (corn (Zea mays)): 0 | Wheat plant response rating (0 to 100 scale) [7]: 20 | Wheat plant response rating [7]: 0 | Barnyardgrass plant response rating (0 to 100 scale) [8]: 40 | Barnyardgrass plant response rating [8]: 30 | Ryegrass, Italian plant response rating (0 to 100 scale) [9]: 90 | Ryegrass, Italian plant response rating [9]: 50 | Foxtail, Giant plant response rating (0 to 100 scale) [10]: 70 | Foxtail, Giant plant response rating [10]: 30 | Ragweed plant response rating (0 to 100 scale) [11]: 80 | Ragweed plant response rating [11]: 60 | Pigweed plant response rating (0 to 100 scale) [12]: 90 | Pigweed plant response rating [12]: 90 | Kochia plant response rating (kochia (Kochia scoparia) [13]; [19]): 0 | Kochia plant response rating (0 to 100 scale) (kochia (Kochia scoparia) [13]; 500 g ai/ha Preemergence): 30 | Barnyardgrass plant response rating [14, 19]: 20 | Barnyardgrass plant response rating (0 to 100 scale) ([14]; 500 g ai/ha Preemergence): 50 | Ryegrass, Italian plant response rating [15, 19]: 0 | Ryegrass, Italian plant response rating (0 to 100 scale) ([15]; 500 g ai/ha Preemergence): 30 | Foxtail, Giant plant response rating [16, 19]: 20 | Foxtail, Giant plant response rating (0 to 100 scale) ([16]; 500 g ai/ha Preemergence): 40 | Ragweed plant response rating [17, 19]: 20 | Ragweed plant response rating (0 to 100 scale) ([17]; 500 g ai/ha Preemergence): 100 | Pigweed plant response rating [18, 19]: 50 | Pigweed plant response rating (0 to 100 scale) ([18]; 500 g ai/ha Preemergence): 100
